From patent US8673907B2, “Pharmaceutically acceptable salts of methyl (3-{ [[3-(6-amino- 2-butoxy-8-oxo-7,8-dihydro-9H-purin-9-yl) propyl] (3-morpholin-4-ylpropyl) amino] methyl }phenyl) acetate and their use in therapy” (AstraZeneca AB, priority 2007, dated 2014)

Columns and labels:
Type in all cases: physicochemical
[1] = Measurement of fine particle fraction (FPF) with Next Generation Impactor and HPLC; settings: for Delivered amount: 60 liters/min for 2 seconds; for FPF (% < 5 μm/delivered dose), Average over NGI's: average of NGI1 and NGI2
Description: Measurement of FPF, starting from substance as received, was carried out according to the following series of steps:
Doses of 1-2 mg were weighed manually (without scraping) into the cavities of a prototype inhaler (see below). Two experiments were run for each test substance and two doses were used in each experiment and, thus, in total, four doses of each test substance were used in the experiments. The samples were dried in nitrogen gas atmosphere overnight before conducting the experiments.
The Next Generation Impactor, NGI, was used for the fine particle assessment. […] Two NGI impactors were used, one per experiment.
A simple prototype inhaler was used for the tests, consisting of an L-shaped cylindrical channel, comprising a vertical component and a horizontal component. The prototype inhaler was fitted via an USP-inlet to the NGI impactor. The micronised powder was transferred through the vertical channel into the bend of the prototype inhaler, (i.e. the bend of the L-shaped channel).
Each dose of 1-2 mg of powder was drawn with an airflow of 60 liters/min for 2 seconds (measured at the entrance of the induction port), entraining the powder located in the bend, and the aerosol thereafter moved through the horizontal component of the channel, through a spiral mouthpiece and into the NGI impactor.
The withdrawal and collection of the drug powders was performed in an isolator (glove) box with a relative humidity level below 2%.
The FPF's, as defined in the pharmacopoeia references above, were calculated.

[2] = Particle size reduction (micronisation) in 2" Spiral Jet Mill; settings: for Yield (micronisation): constant flow feed, venturi 5 bar, grind 1-2 bar
Description: Particle size reduction using a 2″ Spiral Jet Mill (SJM) was carried out on the following three test substances: the monohydrochloride salt according to Example 1 (invention salt), the dimaleate salt according to Example 3 (invention salt) and the free base compound, methyl (3-{[[3-(6-amino-2-butoxy-8-oxo-7,8-dihydro-9H-purin-9-yl)propyl](3-morpholin-4-ylpropyl)amino]methyl}phenyl)acetate (comparison compound).
A sieved batch of test substance was fed into the jet mill chamber, via a venturi feed system, by a vibratory feeder. Micronisation was achieved by particle collisions brought about by compressed gas (nitrogen) forced through angled nozzles in the jet mill chamber. Particles of different sizes develop different speeds and momentum and as the particle size is reduced the particles spiral towards the centre of the jet mill and exit via an exhaust into a collection bin. The process parameters that control the particle size, in addition to the inherent properties of the compound to be micronised, are the feed rate, grinding pressure and venturi pressure and these are summarised in Table I following.

[3] = Particle size measurement by laser diffraction (Malvern Scirocco) after micronisation; settings: after jet milling; pressure 4 bar (comparison) or 1.5 bar (salts)
Description: Particle size reduction (micronisation) was performed in a jet mill in which pressurised gas was used to make the substance particles collide at high speed in order to effect particle size reduction. Particle size measurements were performed with laser diffraction using a Malvern Scirocco instrument.

SMILES | Amount particles < 5 μm, extrapolated ([1]; NGI1) [µg] | Collected in stage 3-8 (<4.5 μm) ([1]; NGI1) [µg] | FPF (% < 5 μm/delivered dose) ([1]; NGI1) [%] | Delivered amount ([1]; NGI1) [µg] | Amount particles < 5 μm, extrapolated ([1]; NGI2) [µg] | Collected in stage 3-8 (<4.5 μm) ([1]; NGI2) [µg] | FPF (% < 5 μm/delivered dose) ([1]; NGI2) [%] | Delivered amount ([1]; NGI2) [µg] | FPF (% < 5 μm/delivered dose), Average over NGI's [1] [%] | Micronisation behaviour (build-up/blocking of mill) [2] | Yield (micronisation) [2] [%] | d(0.1) [3] [μm] | d(0.5) [3] [μm] | d(0.9) [3] [μm]
CCCCOc1nc(N)c2[nH]c(=O)n(CCCN(CCCN3CCOCC3)Cc3cccc(CC(=O)OC)c3)c2n1 [Comparison compound, methyl (3-{[[3-(6-amino-2-butoxy-8-oxo-7,8-dihydro-9H-purin-9-yl)propyl](3-morpholin-4-ylpropyl)amino]methyl}phenyl)acetate, reference compound] | 139 | 131 | 19.3 | 720 | 189 | 178 | 13.6 | 1396 | 16.4 | the mill became plugged | 1.7 | 0.6 | 1.7 | 4.1
CCCCOc1nc(N)c2[nH]c(=O)n(CCCN(CCCN3CCOCC3)Cc3cccc(CC(=O)OC)c3)c2n1.O=C(O)/C=C\C(=O)O.O=C(O)/C=C\C(=O)O [Dimaleate salt, methyl (3-{[[3-(6-amino-2-butoxy-8-oxo-7,8-dihydro-9H-purin-9-yl)propyl](3-morpholin-4-ylpropyl)amino]methyl}phenyl)acetate dimaleate] | – | – | – | – | – | – | – | – | – | readily micronised | 48 | – | – | –
Br.CCCCOc1nc(N)c2[nH]c(=O)n(CCCN(CCCN3CCOCC3)Cc3cccc(CC(=O)OC)c3)c2n1 [Monohydrobromide, methyl (3-{[[3-(6-amino-2-butoxy-8-oxo-7,8-dihydro-9H-purin-9-yl)propyl](3-morpholin-4-ylpropyl)amino]methyl}phenyl)acetate monohydrobromide] | 332 | 319 | 29.6 | 1123 | 427 | 414 | 43.8 | 975 | 36.7 | – | – | 0.8 | 1.9 | 4.1
CCCCOc1nc(N)c2[nH]c(=O)n(CCCN(CCCN3CCOCC3)Cc3cccc(CC(=O)OC)c3)c2n1.Cl [Monohydrochloride, methyl (3-{[[3-(6-amino-2-butoxy-8-oxo-7,8-dihydro-9H-purin-9-yl)propyl](3-morpholin-4-ylpropyl)amino]methyl}phenyl)acetate monohydrochloride] | 393 | 383 | 31.3 | 1257 | 402 | 392 | 40.6 | 992 | 35.9 | readily micronised | 85 | 0.9 | 1.8 | 3.5
